Source: ChEMBL document CHEMBL1132856, “Antitumour activity of sphingoid base adducts of phenethyl isothiocyanate” (2000)

Key:
Leukemia 60 cell line [1] = assay: Median growth inhibitory concentration of compound tested in vitro against human leukemia 60 cells; format: functional
Leukemia 60 cell line [2] = assay: Median toxic concentration of compound tested in vitro against human leukemia 60 cells; format: functional; conditions: read-out: TC50 (the source's name)

Compound | GC50 (Leukemia 60 cell line [1]) [µM] | CC50 (Leukemia 60 cell line [2]) [µM]
CCCCCCCCCCCCCCCC(O)C(CO)/N=C(\S)NCCc1ccccc1 (stereo not given) | 1.6 | 2.37
CCCCCCCCCCCCC/C=C\C(O)C(CO)/N=C(\S)NCCc1ccccc1 (stereo not given) | 0.64 | 2.53
CCCCCCCCCCCCCCC[C@@H](O)[C@@H](N)CO [DIHYDROSPINGOSINE] | 0.49 | 2.55
S=C=NCCc1ccccc1 [PHENETHYLISOTHIOCYANATE] | 0.84 | 1.37
CCCCCCCCCCCCCC=C[C@@H](O)[C@@H](N)CO [SPHINGOSINE] | 1.24 | 2.42
